Laboratory results: patent publication US12649750B2, “Macrocyclic compounds, compositions, and methods of using thereof” (Sionna Therapeutics Inc., priority 2022, dated 2026)

Key:
NBD1 = biological target: T1, NBD1 (Homo sapiens, UniProt P13569); assay: Aggregation analysis using differential static light scattering (DSLS), thermal stability of NBD1 (ΔTagg); assay type: binding; details: ΔTagg versus DMSO control, NBD1 0.2 mg/ml
T1 construct: Purified recombinant NBD1 was produced using previously described methods; made in house
T1 sequence (P13569 423-646 limits assumed): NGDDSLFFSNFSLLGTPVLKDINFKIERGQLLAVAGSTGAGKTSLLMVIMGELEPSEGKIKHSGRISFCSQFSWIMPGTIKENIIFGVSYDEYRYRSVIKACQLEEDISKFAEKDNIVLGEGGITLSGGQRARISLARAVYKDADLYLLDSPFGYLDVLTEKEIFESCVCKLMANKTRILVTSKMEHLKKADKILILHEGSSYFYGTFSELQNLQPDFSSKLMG
In short: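 NBD1 0.2 mg/ml, S200 buffer (50 mM Tris-HCl, 150 mM NaCl, 5 mM MgCl2, 2 mM ATP, 2 mM DTT, pH7.6) + 1% glycerol; cpd in DMSO; oil overlay. Ramp 25→70° C. at 1° C./min, DSLS images every 0.5° C. ΔTagg = Tagg (inflection) − mean DMSO Tagg.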

CFTR = biological target: T2, CFTR (Homo sapiens, UniProt P13569, DEL508-508); assay: TECC24 AUC fold over DMSO @10 μM, CFTR-mediated transepithelial chloride transport in CF-HBE cells; assay type: cell-based; details: test agent AUC divided by DMSO vehicle AUC, primary CF-HBE cells, ΔF508 homozygous donor, 48 hours incubation
T2 construct: Primary human bronchial epithelial cells from a ΔF508 homozygous CF donor; host or cells: primary human bronchial epithelial cells (CF-HBE), ΔF508 homozygous donor
T2 sequence (P13569 with tags, fused parts or gaps DEL508-508): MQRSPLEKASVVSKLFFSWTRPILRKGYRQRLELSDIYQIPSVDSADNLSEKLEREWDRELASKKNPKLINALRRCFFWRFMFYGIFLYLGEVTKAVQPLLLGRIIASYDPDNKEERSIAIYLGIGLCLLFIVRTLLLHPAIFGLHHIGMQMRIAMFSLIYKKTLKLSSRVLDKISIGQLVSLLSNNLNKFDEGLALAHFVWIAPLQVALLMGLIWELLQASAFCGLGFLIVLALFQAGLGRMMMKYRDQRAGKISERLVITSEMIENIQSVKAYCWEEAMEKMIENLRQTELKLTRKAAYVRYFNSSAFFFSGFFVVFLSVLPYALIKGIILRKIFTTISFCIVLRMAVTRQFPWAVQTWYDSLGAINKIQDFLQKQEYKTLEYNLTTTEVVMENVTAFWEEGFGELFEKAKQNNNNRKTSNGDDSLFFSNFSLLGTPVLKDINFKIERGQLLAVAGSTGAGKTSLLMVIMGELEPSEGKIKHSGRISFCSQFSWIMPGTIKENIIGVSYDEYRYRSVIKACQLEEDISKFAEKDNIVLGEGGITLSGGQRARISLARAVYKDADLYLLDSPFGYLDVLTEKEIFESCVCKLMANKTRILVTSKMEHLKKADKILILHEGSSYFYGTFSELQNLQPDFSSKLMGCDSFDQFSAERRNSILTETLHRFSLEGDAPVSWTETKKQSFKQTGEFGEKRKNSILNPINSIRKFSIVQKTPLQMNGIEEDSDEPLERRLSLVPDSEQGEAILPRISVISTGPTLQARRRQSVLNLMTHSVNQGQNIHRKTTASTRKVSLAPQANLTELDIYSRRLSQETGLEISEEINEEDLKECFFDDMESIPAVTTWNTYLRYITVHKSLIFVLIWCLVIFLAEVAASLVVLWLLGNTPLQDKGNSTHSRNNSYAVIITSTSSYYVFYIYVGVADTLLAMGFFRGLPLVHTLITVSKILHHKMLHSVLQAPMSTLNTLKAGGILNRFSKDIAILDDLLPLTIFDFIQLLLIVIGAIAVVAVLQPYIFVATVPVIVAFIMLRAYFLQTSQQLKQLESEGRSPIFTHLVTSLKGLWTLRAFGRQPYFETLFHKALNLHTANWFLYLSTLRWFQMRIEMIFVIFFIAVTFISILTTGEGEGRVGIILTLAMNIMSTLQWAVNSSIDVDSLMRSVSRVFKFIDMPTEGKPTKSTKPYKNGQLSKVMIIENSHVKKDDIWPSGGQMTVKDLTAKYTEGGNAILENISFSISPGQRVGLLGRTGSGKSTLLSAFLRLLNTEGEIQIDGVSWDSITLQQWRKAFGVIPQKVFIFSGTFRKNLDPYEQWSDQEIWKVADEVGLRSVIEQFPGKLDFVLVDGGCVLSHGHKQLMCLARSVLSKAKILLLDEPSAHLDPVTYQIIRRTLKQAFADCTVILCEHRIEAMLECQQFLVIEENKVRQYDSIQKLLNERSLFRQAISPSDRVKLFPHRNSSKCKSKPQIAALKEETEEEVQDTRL
In short: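 Value is ratio of test-agent to DMSO AUC of equivalent transepithelial Cl− current, integrated from forskolin (10 μM) stimulation to CFTR inhibitor-172 (20 μM) block, with benzamil 10 μM present. CF-HBE (ΔF508/ΔF508) cultures had 48 h compound exposure at 10 μM, 36.5° C before recording.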

Row | Compound | DSLS 3D (100 μM ΔT) (NBD1) | TECC (AUC, 10 μM) (CFTR)
1 | C[C@H](Cc1cccc([C@@]2(C)CCCC(C)(C)CS(=O)(=O)CCc3c(c(F)cc4[nH]ccc34)Cc3ccnc(c3)-c3nc2nn3C)c1)C(=O)O [Compound 234, (2R)-3-[3-[(6R)-22-fluoro-3,6,10,10-tetramethyl-12,12-dioxo-12λ6-thia-3,4,19,28,30-pentazapentacyclo[23.3.1.12,5.015,23.016,20]triaconta-1(29),2(30),4,15,17,20,22,25,27-nonaen-6-yl]phenyl]-2-methyl-propanoic Acid] | C (a value greater than 10 °C and less than or equal to 25 °C is marked “C”) | B (a value between 12-20 is marked “B”)
2 | Cn1nc2nc1-c1cc(ccn1)C(=O)c1c(F)cc3[nH]ccc3c1CCS(=O)(=O)CC(C)(C)CCC[C@]2(C)c1cccc(CCC(=O)O)c1 [Compound 238, 3-[3-[(6R)-22-fluoro-3,6,10,10-tetramethyl-12,12,24-trioxo-12λ6-thia-3,4,19,28,30-pentazapentacyclo[23.3.1.12,5.015,23.016,20]triaconta-1(29),2(30),4,15,17,20,22,25,27-nonaen-6-yl]phenyl]propanoic acid] | C (a value greater than 10 °C and less than or equal to 25 °C is marked “C”) | A (a TECC value less than 12 is marked “A”)
3 | C[C@@H](Cc1cccc([C@@]2(C)CCCC(C)(C)CS(=O)(=O)CCc3c(c(F)cc4[nH]ccc34)Sc3ccc(F)c(c3)-c3nc2cs3)c1)C(=O)O [Compound 240, (2S)-3-[3-[(6R)-22,28-difluoro-6,10,10-trimethyl-12,12-dioxo-3,12λ6,24-trithia-19,30-diazapentacyclo[23.3.1.12,5.015,23.016,20]triaconta-1(29),2(30),4,15,17,20,22,25,27-nonaen-6-yl]phenyl]-2-methyl-propanoic Acid] | B (a value above 5 °C and less than or equal to 10 °C is marked “B”) | A (a TECC value less than 12 is marked “A”)
4 | C[C@@H](Cc1cccc([C@@]2(C)CCCC(C)(C)CS(=O)(=O)CCc3c(c(F)cc4[nH]ccc34)Sc3ccc(F)c(c3)-c3nc2nn3C)c1)C(=O)O [Compound 242, (2S)-3-[3-[(6R)-22,28-difluoro-3,6,10,10-tetramethyl-12,12-dioxo-12λ6,24-dithia-3,4,19,30-tetrazapentacyclo[23.3.1.12,5.015,23.016,20]triaconta-1(29),2(30),4,15,17,20,22,25,27-nonaen-6-yl]phenyl]-2-methyl-propanoic Acid] | C (a value greater than 10 °C and less than or equal to 25 °C is marked “C”) | C (a value between 20 and 80 is marked “C”)
5 | C[C@@H](Cc1cccc([C@@]2(C)CCCC(C)(C)CS(=O)(=O)CCc3c(c(F)cc4[nH]ccc34)Oc3cncc(c3)-c3nc2nn3C)c1)C(=O)O [Compound 244, (2S)-3-[3-[(6R)-22-fluoro-3,6,10,10-tetramethyl-12,12-dioxo-24-oxa-12λ6-thia-3,4,19,27,30-pentazapentacyclo[23.3.1.12,5.015,23.016,20]triaconta-1(29),2(30),4,15(23),16(20),17,21,25,27-nonaen-6-yl]phenyl]-2-methyl-propanoic Acid] | C (a value greater than 10 °C and less than or equal to 25 °C is marked “C”) | C (a value between 20 and 80 is marked “C”)
6 | C[C@@H](Cc1cccc([C@@]2(C)CCCC(C)(C)CS(=O)(=O)CCc3c(c(F)c(F)c4[nH]ccc34)Oc3ccc(F)c(c3)-c3nc2nn3C)c1)C(=O)O [Compound 245, (2S)-2-methyl-3-[3-[(6R)-21,22,28-trifluoro-3,6,10,10-tetramethyl-12,12-dioxo-24-oxa-12λ6-thia-3,4,19,30-tetrazapentacyclo[23.3.1.12,5.015,23.016,20]triaconta-1(29),2(30),4,15,17,20,22,25,27-nonaen-6-yl]phenyl]propanoic Acid] | C (a value greater than 10 °C and less than or equal to 25 °C is marked “C”) | C (a value between 20 and 80 is marked “C”)
7 | Cn1nc2nc1-c1cc(ccn1)C(=O)c1c(F)cc3[nH]ccc3c1CCS(=O)(=O)CC(C)(C)CCC[C@]2(C)c1cccc(CC(=O)O)c1 [Compound 247, 2-[3-[(6R)-22-fluoro-3,6,10,10-tetramethyl-12,12,24-trioxo-12λ6-thia-3,4,19,28,30-pentazapentacyclo[23.3.1.12,5.015,23.016,20]triaconta-1(29),2(30),4,15,17,20,22,25,27-nonaen-6-yl]phenyl]acetic Acid] | C (a value greater than 10 °C and less than or equal to 25 °C is marked “C”) | C (a value between 20 and 80 is marked “C”)
8 | Cn1nc2nc1-c1cc(ccn1)Sc1c(F)cc3[nH]ccc3c1CCS(=O)(=O)CC(C)(C)CCC[C@]2(C)c1cccc(CC(=O)O)c1 [Compound 251, 2-[3-[(6R)-22-Fluoro-3,6,10,10-tetramethyl-12,12-dioxo-12λ6,24-dithia-3,4,19,28,30-pentazapentacyclo[23.3.1.12,5.015,23.016,20]triaconta-1(29),2(30),4,15,17,20,22,25,27-nonaen-6-yl]phenyl]acetic Acid] | C (a value greater than 10 °C and less than or equal to 25 °C is marked “C”) | B (a value between 12-20 is marked “B”)
9 | Cn1nc2nc1-c1cncc(c1)Oc1c(F)cc3[nH]ccc3c1CCS(=O)(=O)CC(C)(C)CCC[C@]2(C)c1cccc(CCC(=O)O)c1 [Compound 252, 3-[3-[(6R)-22-Fluoro-3,6,10,10-tetramethyl-12,12-dioxo-24-oxa-12λ6-thia-3,4,19,27,30-pentazapentacyclo[23.3.1.12,5.015,23.016,20]triaconta-1(29),2(30),4,15(23),16(20),17,21,25,27-nonaen-6-yl]phenyl]propanoic Acid] | C (a value greater than 10 °C and less than or equal to 25 °C is marked “C”) | C (a value between 20 and 80 is marked “C”)
10 | C[C@@H](Cc1cccc([C@@]2(C)CCCC(C)(C)CS(=O)(=O)CCc3c(c(F)cc4[nH]ccc34)Sc3ccnc(c3)-c3nc2nn3C)c1)C(=O)O [Compound 253, (2S)-3-[3-[(6R)-22-fluoro-3,6,10,10-tetramethyl-12,12-dioxo-12λ6,24-dithia-3,4,19,28,30-pentazapentacyclo[23.3.1.12,5.015,23.016,20]triaconta-1(29),2(30),4,15,17,20,22,25,27-nonaen-6-yl]phenyl]-2-methyl-propanoic Acid] | C (a value greater than 10 °C and less than or equal to 25 °C is marked “C”) | B (a value between 12-20 is marked “B”)
11 | C[C@@H](Cc1cccc([C@@]2(C)CCCC(C)(C)CS(=O)(=O)CCc3c(c(F)cc4[nH]ccc34)Oc3cnnc(c3)-c3nc2nn3C)c1)C(=O)O [Compound 256, (2S)-3-[3-[(6R)-22-Fluoro-3,6,10,10-tetramethyl-12,12-dioxo-24-oxa-12λ6-thia-3,4,19,27,28,30-hexazapentacyclo[23.3.1.12,5.015,23.016,20]triaconta-1(29),2(30),4,15,17,20,22,25,27-nonaen-6-yl]phenyl]-2-methyl-propanoic Acid] | C (a value greater than 10 °C and less than or equal to 25 °C is marked “C”) | C (a value between 20 and 80 is marked “C”)
